Source: patent US8999889B2, “Substituted ketonic isoxazoline compounds and derivatives for combating animal pests” (BASF SE, priority 2010, dated 2015)

What was measured:
Format in all cases: in vivo
Heliothis virescens = test: Tobacco budworm (Heliothis virescens) I, sprayed cotton plants; details: 96 h, Heliothis virescens larvae, 4 days after treatment, read-out: mortality in comparison with untreated controls
Description: B.6 Tobacco Budworm (Heliothis virescens) I
(§1) The active compounds were formulated in cyclohexanone as a 10,000 ppm solution supplied in tubes. The tubes were inserted into an automated electrostatic sprayer equipped with an atomizing nozzle and they served as stock solutions for which lower dilutions were made in 50% acetone:50% water (v/v). A nonionic surfactant (Kinetic®) was included in the solution at a volume of 0.01% (v/v).
Cotton plants were grown 2 plants to a pot and selected for treatment at the cotyledon stage. Test solutions were sprayed onto the foliage by an automated electrostatic plant sprayer equipped with an atomizing spray nozzle. The plants were dried in the sprayer fume hood and then removed from the sprayer. Each pot was placed into perforated plastic bags with a zip closure. About 10 to 11 budworm larvae were placed into the bag and the bags zipped closed. Test plants were maintained in a growth room at about 25° C. and about 20-40% relative humidity for 4 days, avoiding direct exposure to fluorescent light (24 hour photoperiod) to prevent trapping of heat inside the bags. Mortality and reduced feeding were assessed 4 days after treatment, compared to untreated control plants.

Bemisia argentifolii = test: Silverleaf whitefly (Bemisia argentifolii), sprayed cotton plants; details: 72 h, Bemisia argentifolii adults, 3 days after treatment, read-out: mortality in comparison with untreated controls
Description: B.3 Silverleaf Whitefly (Bemisia argentifolii)
as §1
Cotton plants at the cotyledon stage (one plant per pot) were sprayed by an automated electrostatic plant sprayer equipped with an atomizing spray nozzle. The plants were dried in the sprayer fume hood and then removed from the sprayer. Each pot was placed into a plastic cup and about 10 to 12 whitefly adults (approximately 3-5 days old) were introduced. The insects were collected using an aspirator and a nontoxic Tygon® tubing connected to a barrier pipette tip. The tip, containing the collected insects, was then gently inserted into the soil containing the treated plant, allowing insects to crawl out of the tip to reach the foliage for feeding. Cups were covered with a reusable screened lid. […] Mortality was assessed 3 days after treatment, compared to untreated control plants.

Megoura viciae = test: Vetch aphid (Megoura viciae), broad bean leaf disks in microtiter plates; details: foliar, 120 h, Megoura viciae adults, 5 days, read-out: mortality in comparison with untreated controls
Description: B.5 Vetch aphid (Megoura viciae)
For evaluating control of vetch aphid (Megoura viciae) through contact or systemic means the test unit consisted of 24-well-microtiter plates containing broad bean leaf disks.
The compounds were formulated using a solution containing 75% v/v water and 25% v/v DMSO. Different concentrations of formulated compounds were sprayed onto the leaf disks at 2.5 μl, using a custom built micro atomizer, at two replications. After application, the leaf disks were air-dried and 5-8 adult aphids placed on the leaf disks inside the microtiter plate wells. The aphids were then allowed to suck on the treated leaf disks and incubated at about 23±1° C. and about 50±5% relative humidity for 5 days. Aphid mortality and fecundity was then visually assessed.

Spodoptera eridania = test: Southern armyworm (Spodoptera eridania), sprayed lima bean plants; details: 96 h, Spodoptera eridania larvae, 4 days after treatment, read-out: mortality in comparison with untreated controls
Description: B.4 Southern Armyworm (Spodoptera eridania)
as §1
Lima bean plants (variety Sieva) were grown 2 plants to a pot and selected for treatment at the 1st true leaf stage. Test solutions were sprayed onto the foliage by an automated electrostatic plant sprayer equipped with an atomizing spray nozzle. The plants were dried in the sprayer fume hood and then removed from the sprayer. Each pot was placed into perforated plastic bags with a zip closure. About 10 to 11 armyworm larvae were placed into the bag and the bags zipped closed. Test plants were maintained in a growth room at about 25° C. and about 20-40% relative humidity for 4 days, avoiding direct exposure to fluorescent light (24 hour photoperiod) to prevent trapping of heat inside the bags. Mortality and reduced feeding were assessed 4 days after treatment, compared to untreated control plants.

Plutella xylostella = test: Diamond back moth (Plutella xylostella), dipped Chinese cabbage leaves; details: mortality recorded 24, 72, and 120 hours after treatment, read-out: mortality in comparison with untreated controls
Description: If not otherwise specified the test solutions were prepared as follow:
The active compound was dissolved at the desired concentration in a mixture of 1:1 (vol:vol) distilled water:acteon. The test solution was prepared at the day of use and in general at concentrations of ppm (wt/vol).
B.1 Diamond Back Moth (Plutella xylostella)
Leaves of Chinese cabbage were dipped in test solution and air-dried. Treated leaves were placed in petri dished lined with moist filter paper. Mortality was recorded 24, 72, and 120 hours after treatment.

Anthonomus grandis = test: Boll weevil (Anthonomus grandis), microtiter plate with insect diet and eggs; details: 120 h, egg and larval mortality after 5 days, read-out: mortality in comparison with untreated controls
Description: B.7 Boll Weevil (Anthonomus grandis)
For evaluating control of boll weevil (Anthonomus grandis) the test unit consisted of 24-well-microtiter plates containing an insect diet and 20-30 A. grandis eggs.
The compounds were formulated using a solution containing 75% v/v water and 25% v/v DMSO. Different concentrations of formulated compounds were sprayed onto the insect diet at 20 μl, using a custom built micro atomizer, at two replications.
After application, microtiter plates were incubated at about 23±1° C. and about 50±5% relative humidity for 5 days. Egg and larval mortality was then visually assessed.

Ceratitis capitata = test: Mediterranean fruitfly (Ceratitis capitata), microtiter plate with insect diet and eggs; details: 120 h, egg and larval mortality after 5 days, read-out: mortality in comparison with untreated controls
Description: B.2 Mediterranean Fruitfly (Ceratitis capitata)
For evaluating control of Mediterranean fruitfly (Ceratitis capitata) the test unit consisted of microtiter plates containing an insect diet and 50-80 C. capitata eggs.
The compounds were formulated using a solution containing 75% v/v water and 25% v/v DMSO. Different concentrations of formulated compounds were sprayed onto the insect diet at 5 μl, using a custom built micro atomizer, at two replications. After application, microtiter plates were incubated at about 28±1° C. and about 80±5% relative humidity for 5 days. Egg and larval mortality was then visually assessed.

Myzus persicae = test: Green peach aphid (Myzus persicae), artificial diet under membrane, systemic; details: 72 h, Myzus persicae adults, 3 days, read-out: mortality in comparison with untreated controls
Description: B.8 Green Peach Aphid (Myzus Persicae)
For evaluating control of green peach aphid (Myzus persicae) through systemic means the test unit consisted of 96-well-microtiter plates containing liquid artificial diet under an artificial membrane.
The compounds were formulated using a solution containing 75% v/v water and 25% v/v DMSO. Different concentrations of formulated compounds were pipetted into the aphid diet, using a custom built pipetter, at two replications.
After application, 5-8 adult aphids were placed on the artificial membrane inside the microtiter plate wells. The aphids were then allowed to suck on the treated aphid diet and incubated at about 23±1° C. and about 50±5% relative humidity for 3 days. Aphid mortality and fecundity was then visually assessed.

CC(=O)c1ccc(C2=NOC(c3cc(Cl)cc(Cl)c3)(C(F)(F)F)C2)cc1C (stereo not drawn) [Compound 1-1, 1-{4-[5-(3,5-Dichloro-phenyl)-5-trifluoromethyl-4,5-dihydro-isoxazol-3-yl]-2-methyl-phenyl}-ethanone]
≥ 75%: mortality at 2500 ppm (Heliothis virescens) | mortality at 300 ppm (Bemisia argentifolii) | mortality at 2500 ppm (Megoura viciae) | mortality at 300 ppm (Spodoptera eridania) | mortality at 300 ppm (Plutella xylostella) | mortality at 2500 ppm (Anthonomus grandis) | mortality at 2500 ppm (Ceratitis capitata) | mortality at 2500 ppm (Myzus persicae)

Cc1cc(C2=NOC(c3cc(Cl)cc(Cl)c3)(C(F)(F)F)C2)ccc1C(=O)CC(C)C (stereo not drawn) [Compound 1-2, 1-{4-[5-(3,5-Dichloro-phenyl)-5-trifluoromethyl-4,5-dihydro-isoxazol-3-yl]-2-methyl-phenyl}-3-methyl-butan-1-one]
≥ 75%: mortality at 2500 ppm (Heliothis virescens) | mortality at 300 ppm (Bemisia argentifolii) | mortality at 2500 ppm (Megoura viciae) | mortality at 300 ppm (Spodoptera eridania) | mortality at 300 ppm (Plutella xylostella) | mortality at 2500 ppm (Ceratitis capitata) | mortality at 2500 ppm (Myzus persicae)
